Experimental data as given in the METLIN SMRT retention time set (Domingo-Almenara et al. 2019).

Assay: gradient 5% acetonitrile 3 min, to 50% in 2 min, to 85% in 15 min, held 3 min, 100 µL/min
Settings: column: Zorbax Extend-C18 2.1 x 50 mm; eluents: water / acetonitrile, 0.1% formic acid
In short: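 Retention times come from adduct peaks that were picked computationally and then checked by hand. The standards, pure and pooled in mixtures of ~100 molecules, were run on a Zorbax Extend-C18 column (2.1 × 50 mm, 1.8 μm) at 100 μL/min with water and acetonitrile, each with 0.1% formic acid. Detection was by quadrupole time-of-flight mass spectrometry in positive and negative ionization mode, with a dead volume of 40 μL and a dwell volume of 900 μL.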

| SMILES | RP-LC retention time |
| --- | --- |
| CCCS(=O)(=O)N1CCc2ccc(NC(=O)Nc3cc(Cl)ccc3OC)cc2C1 | 995 s |
| CCOc1ccc(S(=O)(=O)N2CCC(C(=O)NC)CC2)cc1C | 761 s |
| CCc1nc(-c2csc(S(=O)(=O)N3CCC(C(=O)Nc4ccc(F)cc4Cl)CC3)c2)no1 | 1040 s |
| COc1cc2c(cc1OC)C1C(C(=O)N3CCN(c4ccccn4)CC3)c3ccccc3C(=O)N1CC2 (centres undefined) | 606 s |
| CC(C)n1c(N2CCN(C(=O)c3ccccn3)CC2)cc(=O)n(C(C)C)c1=O | 709 s |
| CC1=C(c2cccc(Cl)c2)S(=O)(=O)N=C1N1CCC(NC(=O)C2CCCO2)CC1 (centres undefined) | 771 s |
| CCc1ccc(Nc2nc(C(=O)NCCC3=CCCCC3)nc3ccccc23)cc1 | 1080 s |
| Fc1ccccc1N1CCN(Cc2nc(-c3ccc(N4CCSCC4)nc3)no2)CC1 | 1030 s |
| O=C(NC1CCCC1)c1cccc2c1CCN2C(=O)c1ccc(F)cc1 | 862 s |
| Cc1cc(C)n(Cc2nc(-c3ccc(NC(=O)Cc4ccccc4F)cc3)oc2C)n1 | 915 s |
| CCN1C(=O)CN(C(=O)c2ccco2)CC12CCOCC2 | 610 s |
| C=CCN=C(NC#N)SC | 696 s |
| Cc1cc(N2CCCCC2)nc(N2CCN(S(=O)(=O)c3ccc(Br)cc3)CC2)n1 | 847 s |
| Cn1c(=O)c2c(nc3n(-c4ccc(F)cc4)c(-c4ccc(Cl)cc4)cn23)n(C)c1=O | 1010 s |
| Cc1ccc(CNC(=O)Cn2c(=O)cc(-c3nc(C(C)C)no3)c3ccccc32)cc1 | 1010 s |
| Cc1c(CN2CCN(C(=O)[C@H](C)O)CC2)sc2c(N3CCOCC3)nc(-c3cnc(N)nc3)nc12 | 612 s |
| Cn1nc(-c2nc(C3CC3)no2)c2c1CCN(C(=O)c1ccco1)C2 | 744 s |
| COc1ccc2nc(Nc3nc(-c4ccncc4)cs3)sc2c1 | 584 s |
| COC(=O)c1ccc(C2CC(=O)NC3=C2C(=O)CC(C)(C)C3)cc1 (centres undefined) | 675 s |

| SMILES | RP-LC retention time |
| --- | --- |
| Cc1ccc(N2CCN(C(=O)c3cn(-c4cc(N5CCSCC5)ncn4)cn3)CC2)cc1 | 916 s |
| COc1ccc(C(=O)Nc2nc(-c3ccc4c(c3)NC(=O)CO4)c(C)s2)cc1 | 881 s |
| Cc1ccc(CNC(=O)c2c(OCC(C)C)cc(=O)n3c2CCCCC3)o1 | 786 s |
| CCCCN(C)C(=O)Cn1c(=O)c2cnc(-c3ccc(Cl)cc3)nc2n(CC)c1=O | 1190 s |
| Cc1ccc(CNC(=O)NCCCn2c(-c3ccncc3)nc3cccnc32)cc1 | 651 s |
| CC(Cc1cccs1)NC(=O)CCS(=O)(=O)c1ccccc1 (centres undefined) | 746 s |
| Cc1sc(NC(=O)CC(C)C)nc1-c1ccc2c(c1)NC(=O)C(C)O2 (centres undefined) | 865 s |
| Cc1ccc(CNC(=O)CCc2c(C)nn(-c3cc(N4CCCCC4)ncn3)c2C)o1 | 882 s |
| COc1ccc(-c2nc(Cn3ccn4nc(-c5ccc(OC)c(OC)c5)cc4c3=O)c(C)o2)cc1 | 968 s |
| CCCc1noc(-c2ccc(-n3cnc(C(=O)NC4CCCCCC4)c3)nc2)n1 | 1070 s |
| O=S(=O)(CCOc1ccc(F)cc1)Nc1ncccn1 | 670 s |
| CCc1ccc(NC(=O)N2CCCC(C)(C(=O)NCc3ccc(C)cc3)C2)cc1 (centres undefined) | 1040 s |
| CC(=O)Nc1cccc(-c2nc(-c3ccc4c(c3)oc(=O)n4C(C)C)no2)c1 | 936 s |
| Cc1noc([C@@H]2CN(C(=O)c3occc3C)C[C@H]2CO)n1 | 642 s |
| O=C(CN1C(=O)CCc2cc(Br)ccc21)Nc1ccccc1 | 889 s |
| CSc1ccc(-c2nc3ncccn3c2Nc2c(C)cccc2C)cc1 | 864 s |
| CC(C)=CC1C(C(=O)O)C1(C)C (centres undefined) | 808 s |
| CCOCCCNC(=O)C1(C)Cn2c(ccc2-c2ccco2)C(=O)N1c1ccc(OC)cc1 (centres undefined) | 791 s |
| O=C(Nc1ccc(OCC(=O)N2CCN(c3ccc(Cl)cc3)CC2)nc1)C1CC1 | 808 s |

| SMILES | RP-LC retention time |
| --- | --- |
| Cc1ccc(NC(=O)Cn2ncc3c(c2=O)N(CC2CC2)C(=O)CS3)cc1Cl | 884 s |
| Cc1ccn2cc(-c3ccc(NS(=O)(=O)c4ccc5nc(C)sc5c4)cc3)nc2n1 | 641 s |
| O=C(CC1CCN(C(=O)C2CCCCC2)CC1)NCCc1c[nH]c2ccc(Cl)cc12 | 871 s |
| CCOc1ccc(-c2ccc(=O)n(Cc3nc(-c4ccc(C)cc4)no3)n2)cc1 | 1150 s |
| c1cncc(-c2nc(-c3ccnc(N4CCOCC4)c3)no2)c1 | 953 s |
| CC(C)NC(=O)N1CCc2c(c(-c3nc(-c4ccccc4)no3)nn2C)C1 | 820 s |
| O=C(NC1CC1)c1snc(-c2ccccn2)c1NC(=O)C1CC1 | 720 s |
| O=[N+]([O-])c1ccc(-c2nc(NCCCO)c3ccccc3n2)cc1 | 595 s |
| O=c1ccc(-c2ccccc2)nn1Cc1nc(-c2cccc(Cl)c2)no1 | 1100 s |
| CCc1nn(C)c(=O)c2cc(S(=O)(=O)NCc3ccc(F)cc3Cl)cn12 | 916 s |
| CNc1nc(Nc2ccc(F)cc2)nc2ccccc12 | 655 s |
| COC(=O)c1c(NC(=O)CCc2ccc(C)o2)sc(C)c1C | 1110 s |
| CC(NC(=O)c1ccco1)c1nc2ccccc2n1CC(=O)N(C)c1ccccc1 (centres undefined) | 694 s |
| COc1cc2c(cc1OC)CN(C(=O)C1CCCN1S(=O)(=O)c1ccc(F)cc1)CC2 (centres undefined) | 775 s |
| Cc1oc(C2CCN(C(=O)c3ccc(C#N)cc3)CC2)nc1C(=O)N(C)C | 654 s |
| CCC(=O)N1CCCCCNC(=O)[C@@H]2CCC[C@@H]21 | 621 s |
| Cc1cc2nn(CC(=O)Nc3ccc4c(c3)OCCO4)c(=O)n2c(Nc2ccccc2C)n1 | 908 s |
| O=C(Nc1nc2ccccc2[nH]1)C1CCN(c2ccc(-c3cccs3)nn2)CC1 | 591 s |

The next lines start with the values.

| RP-LC retention time | SMILES |
| --- | --- |
| 990 s | Cc1nn(-c2ccc(-c3ccccc3)nn2)c(C)c1S(=O)(=O)NCc1ccc(F)cc1F |
| 893 s | COc1ccc(N2C=C(C#N)S(=O)(=O)c3c(F)cccc32)c(OC)c1 |
| 688 s | Fc1ccc(OCc2cn(C3CN(Cc4cccc(F)c4)C3)nn2)cc1 |
| 698 s | CCOC(=O)c1c(C)oc2ncnc(NCC3CCN(Cc4ccc(F)cc4)CC3)c12 |
| 984 s | COc1ccc(C(=O)N2C[C@H](c3nc(-c4ccccc4)no3)[C@@H](C)C2)cc1 |
| 1090 s | Cc1cccc(-c2noc(-c3nn(CC(=O)NC(C)C)c4ccccc34)n2)c1 |
| 856 s | Cc1cccc(Nc2nc(C(=O)NCc3ccc(C)o3)nc3ccccc23)c1 |
| 527 s | CN1CCN(CCCNC(=O)c2ccc(CS(=O)c3cccc(Cl)c3)o2)CC1 (centres undefined) |
| 568 s | O=C(c1ccc(Cl)cc1)N1CCc2nc[nH]c2C1 |
| 555 s | CCn1ccnc1N1CCN(C(=O)c2ccccc2C(F)(F)F)CC1 |
| 871 s | CSc1ncccc1C(=O)N1CCc2cc(-c3ccno3)ccc21 |
| 626 s | O=C(NCc1ccc(N2CCOCC2)nc1)c1cccc(Br)c1 |
| 1090 s | CCc1cccc(NC(=O)CSc2cc(N3CCN(c4ccccc4OC)CC3)ncn2)c1 |
| 665 s | Cn1c(=O)c(NCCCN2CCCc3ccccc32)nc2ccncc21 |
| 850 s | CCn1cc(C2=CCN(C(=O)NCc3cccc(F)c3)CC2)c2cccnc21 |
| 760 s | COCc1c(C(=O)O)nnn1-c1cccc(C(F)(F)F)c1 |
| 906 s | COc1ccc(OC)c(NC(=O)N2CCCC2c2nc(-c3ccccc3OC)no2)c1 (centres undefined) |

| RP-LC retention time | SMILES |
| --- | --- |
| 613 s | Cc1cccc2sc(NC(=O)CNC(=O)c3ccc(=O)[nH]c3)nc12 |
| 690 s | Cc1nc(C)c(-c2ccc(SCC(=O)Nc3ccc4c(c3)OCCO4)nn2)s1 |
| 825 s | Cc1cccc(OCC(=O)N2CCC3(C2)C(=O)N(C)c2ccccc23)c1 (centres undefined) |
| 970 s | CC(C)c1nc(N2CCCC2=O)sc1C(=O)NCc1ccc(F)cc1 |
| 726 s | CC(=O)N1CCc2cc(N3CC(C(=O)Nc4ccc(F)c(F)c4)CC3=O)ccc21 (centres undefined) |
| 1320 s | Cc1ccc(N(C)S(=O)(=O)c2cc(-c3cc(C(F)(F)F)on3)sc2C)cc1 |
| 1110 s | Cc1ccc(C(=O)Nc2nc3c(s2)CN(S(=O)(=O)c2ccccc2)CC3)cc1Br |
| 1230 s | CC(NC(=O)c1c(O)c2cccnc2n(-c2cccc(F)c2)c1=O)c1ccccc1 (centres undefined) |
| 661 s | CC(=O)Nc1nsc(N2CCC(C(=O)NCc3cc(F)cc(F)c3)CC2)n1 |
| 845 s | COCCN1C(=O)c2ccccc2C(C(=O)NCCc2c[nH]c3ccccc23)C12CCCC2 (centres undefined) |
| 658 s | CCn1cnnc1CC1CCN(S(=O)(=O)Cc2ccccc2F)C1 (centres undefined) |
| 1070 s | Cc1ccccc1NC(=O)N1CCN(c2nc3ccccc3nc2C(F)(F)F)CC1 |
| 880 s | Cc1nc(-c2csc(S(=O)(=O)N3CCCC(C(=O)NCc4ccc5c(c4)OCO5)C3)c2)no1 (centres undefined) |
| 842 s | Cc1cccc(-c2noc(Cc3nnc(-c4cc(C)cc(C)c4)o3)n2)c1 |
| 882 s | O=C(COc1ccc(F)cc1)NCC1(c2cccs2)CC1 |
| 842 s | Cc1ccc(-c2nnc(Cc3nc(-c4ccccc4C)no3)o2)cc1C |
